Measured values taken from patent US7655442B2, “Method for stabilizing macrolide compounds” (Eisai R&D Management Co., Ltd., priority 2004, dated 2010).
Like-named read-outs stand apart in the source and are kept apart here.

Experiments:
[1] = Effects of various cyclodextrins on stabilization of macrolide compound 11107B in Dulbecco's PBS (-) at 25° C. (HPLC purity); assay type: physicochemical
Procedure: The macrolide compound 11107B (hereinafter sometimes abbreviated as 11107B) and various cyclodextrins were dissolved in concentrations of 0.1 mg/mL and 10 mg/mL, respectively, in Dulbecco's PBS (−). The 11107B solution and cyclodextrin solution were mixed in equal volumes, and incubation was immediately begun in at thermostatic incubator at 25° C. The solution was sampled at the start (0 hour) and after 24 and 48 hours had elapsed, the samples were analyzed by high performance liquid chromatography (HPLC) under the following analysis conditions (A), and the purity of the 11107B was calculated from the following equation using the chromatogram thus obtained.
<HPLC Analysis Conditions (A)>
Column: L-column, 4.6×150 mm, Chemicals Evaluation and Research Institute
Column temperature: 35° C.
Detection wavelength: 241 nm
Mobile phase A: 0.1% (v/v) formic acid•10% (v/v) acetonitrile
Mobile phase B: 0.1% (v/v) formic acid•90% (v/v) acetonitrile
Gradient program: B=10% (start)→B=40% (15 minutes)→B=100% (20 minutes)→B=10% (20.01 minutes)→B=10% (23 minutes, stop)<
(§1) <Calculation Equation> 11107B purity(%)=[peak surface area value of 11107B/(sum of peak surface area value of 11107B+peak surface area value of impurities and decomposition products)]×100

[2] = Effect of β-CD and methylated β-CD on stabilization of 11107B in Dulbecco's PBS (-) at 25° C. (HPLC purity); assay type: physicochemical
Procedure: as §1
The macrolide compound 11107B and β-CD or methylated β-CD were dissolved in Dulbecco's PBS (−) in concentrations of 0.1 mg/mL and 10 mg/mL, respectively. The 11107B solution and β-CD solution were mixed in equal volumes, and incubation was immediately begun in thermostatic incubator at 25° C. The solution was sampled at the start (0 hour) and after 24, 48 and 120 hours had elapsed, and the samples were analyzed by HPLC under the following analysis conditions (B). The purity of the 11107B was calculated from the equation in Example 1 using the resulting chromatogram.
<HPLC Analysis Conditions (B)>
Column: Develosil ODS UG-3, 4.6×50 mm, 3 μm (made by Nomura Chemical)
Column temperature: 40° C.
Detection wavelength: 240 nm
Eluate: water/methanol gradient
• A=water, B=methanol • 45-55% B (0 to 5 minutes), 55% B (5 to 13 minutes) • 55-70% B (13 to 21 minutes), 45% B (21 to 25 minutes) Retention time: 13 minutes (11107B)

[3] = assay type: physicochemical; conditions: for Purity of macorolide compound 11107B: freeze-dried preparation
Procedure: as §1
Lactose monohydrate was dissolved in purified water in a concentration of 10 mg/mL and HP-β-CD in concentrations of 0, 10 and 200 mg/mL. The macrolide compound 11107B was dissolved in a concentration of 0.1 mg/mL in each of these three types of solution. 1 mL of each solution was put into vials and freeze-dried. The freeze-dried preparations thus obtained were stored for one month at −20° C., 40° C. and 60° C., after which 1 mL of 50% acetonitrile aqueous solution was added to each vial to dissolve the preparation. This product was analyzed by HPLC analysis under the conditions (A) of Example 1, and the purity of the 11107B was calculated according to the equation of Example 1.

[4] = assay type: physicochemical
Procedure: The macrolide compound 11107B was dissolved in Dulbecco's PBS (−) in a concentration of 0.1 mg/mL, and β-CD in concentrations of 10, 3, 1, and 0.3 mg/mL. The 11107B solution and β-CD solution were mixed in equal volumes, and incubation was immediately begun in a 40° C. thermostatic incubator. The solution was sampled at the start (0 hour) and after 1, 2, 4 and 6 hours had elapsed, the samples were analyzed by HPLC under the analysis conditions (A) of Example 1, and the concentration of the 11107B was calculated. Since the plot of the 11107B concentration versus elapsed time was substantially linear, it was concluded that decomposition was occurring in pseudo first-order reaction, and the apparent decomposition rate constant kobs was calculated from the slope thereof. kobs was termed k0 when no β-CD was prevent. According to a report by Ma et al. (J. Pharm. Sci. (2000), 89 (2), 275-287), 1/(k0-kobs) was plotted against the inverse of the β-CD concentration, kc, which is kobs when a large excess of β-CD was present, was calculated from an intercept thereof, and the stabilization constant Kc was calculated from the slope.

[5] = β-CD concentration 0.15 mg/mL, PBS (-), 40° C.
[6] = β-CD concentration 0.5 mg/mL, PBS (-), 40° C.
[7] = β-CD concentration 1.5 mg/mL, PBS (-), 40° C.
[8] = β-CD concentration 5 mg/mL, PBS (-), 40° C.

With `CCC(O)C(C)C1OC1CC(C)/C=C/C=C(\C)C1OC(=O)CC(O)CCC(C)(O)C(OC(C)=O)/C=C/C1C` (stereo not drawn) [11107B, (8E,12E,14E)-7-acetoxy-3,6,21-trihydroxy-6,10,12,16,20-pentamethyl-18,19-epoxytricosa-8,12,14-trien-11-olide] the “Purity of macorolide compound 11107B” value ([1]; CD not added, 0 h, Dulbecco's PBS (-)) was 99%, the “Purity of macorolide compound 11107B” value ([1]; CD not added, 24 h, Dulbecco's PBS (-)) was 62% and the “Purity of macorolide compound 11107B” value ([1]; CD not added, 48 h, Dulbecco's PBS (-)) was 35%. The “Purity of macorolide compound 11107B” value ([1]; HP-α-CD (10 mg/mL solution mixed in equal volume with 0.1 mg/mL 11107B), 0 h, PBS (-)) was 99%, the “Purity of macorolide compound 11107B” value ([1]; HP-α-CD (10 mg/mL solution mixed in equal volume with 0.1 mg/mL 11107B), 24 h, PBS (-)) was 71% and the “Purity of macorolide compound 11107B” value ([1]; HP-α-CD (10 mg/mL solution mixed in equal volume with 0.1 mg/mL 11107B), 48 h, PBS (-)) was 47%. For the same compound, the “Purity of macorolide compound 11107B” value ([1]; HP-β-CD (10 mg/mL solution mixed in equal volume with 0.1 mg/mL 11107B), 0 h, PBS (-)) was 100%, the “Purity of macorolide compound 11107B” value ([1]; HP-β-CD (10 mg/mL solution mixed in equal volume with 0.1 mg/mL 11107B), 24 h, PBS (-)) was 93% and the “Purity of macorolide compound 11107B” value ([1]; HP-β-CD (10 mg/mL solution mixed in equal volume with 0.1 mg/mL 11107B), 48 h, PBS (-)) was 86%. For the same compound, the “Purity of macorolide compound 11107B” value ([1]; HP-γ-CD (10 mg/mL solution mixed in equal volume with 0.1 mg/mL 11107B), 0 h, PBS (-)) was 99%, the “Purity of macorolide compound 11107B” value ([1]; HP-γ-CD (10 mg/mL solution mixed in equal volume with 0.1 mg/mL 11107B), 24 h, PBS (-)) was 83% and the “Purity of macorolide compound 11107B” value ([1]; HP-γ-CD (10 mg/mL solution mixed in equal volume with 0.1 mg/mL 11107B), 48 h, PBS (-)) was 67%. For the same compound, the “Purity of macorolide compound 11107B” value ([1]; α-CD (10 mg/mL solution mixed in equal volume with 0.1 mg/mL 11107B), 0 h, PBS (-)) was 99%, the “Purity of macorolide compound 11107B” value ([1]; α-CD (10 mg/mL solution mixed in equal volume with 0.1 mg/mL 11107B), 24 h, PBS (-)) was 71% and the “Purity of macorolide compound 11107B” value ([1]; α-CD (10 mg/mL solution mixed in equal volume with 0.1 mg/mL 11107B), 48 h, PBS (-)) was 47%. The “Purity of macorolide compound 11107B” value ([1]; β-CD (10 mg/mL solution mixed in equal volume with 0.1 mg/mL 11107B), 0 h, PBS (-)) was 100%, the “Purity of macorolide compound 11107B” value ([1]; β-CD (10 mg/mL solution mixed in equal volume with 0.1 mg/mL 11107B), 24 h, PBS (-)) was 95% and the “Purity of macorolide compound 11107B” value ([1]; β-CD (10 mg/mL solution mixed in equal volume with 0.1 mg/mL 11107B), 48 h, PBS (-)) was 90%. The “Purity of macorolide compound 11107B” value ([1]; γ-CD (10 mg/mL solution mixed in equal volume with 0.1 mg/mL 11107B), 0 h, PBS (-)) was 100%, the “Purity of macorolide compound 11107B” value ([1]; γ-CD (10 mg/mL solution mixed in equal volume with 0.1 mg/mL 11107B), 24 h, PBS (-)) was 88% and the “Purity of macorolide compound 11107B” value ([1]; γ-CD (10 mg/mL solution mixed in equal volume with 0.1 mg/mL 11107B), 48 h, PBS (-)) was 77%. For the same compound, the “Purity of macorolide compound 11107B” value ([2]; CD not added, 0 h) was 98%, the “Purity of macorolide compound 11107B” value ([2]; CD not added, 24 h) was 59% and the “Purity of macorolide compound 11107B” value ([2]; CD not added, 48 h) was 34%. For the same compound, the “Purity of macorolide compound 11107B” value ([2]; CD not added, 120 h) was 3%, the “Purity of macorolide compound 11107B” value ([2]; methylated β-CD (10 mg/mL solution mixed in equal volume with 0.1 mg/mL 11107B), 0 h) was 98% and the “Purity of macorolide compound 11107B” value ([2]; methylated β-CD (10 mg/mL solution mixed in equal volume with 0.1 mg/mL 11107B), 24 h) was 95%. The “Purity of macorolide compound 11107B” value ([2]; methylated β-CD (10 mg/mL solution mixed in equal volume with 0.1 mg/mL 11107B), 48 h) was 92%, the “Purity of macorolide compound 11107B” value ([2]; methylated β-CD (10 mg/mL solution mixed in equal volume with 0.1 mg/mL 11107B), 120 h) was 80% and the “Purity of macorolide compound 11107B” value ([2]; β-CD (10 mg/mL solution mixed in equal volume with 0.1 mg/mL 11107B), 0 h) was 98%. The “Purity of macorolide compound 11107B” value ([2]; β-CD (10 mg/mL solution mixed in equal volume with 0.1 mg/mL 11107B), 24 h) was 95%, the “Purity of macorolide compound 11107B” value ([2]; β-CD (10 mg/mL solution mixed in equal volume with 0.1 mg/mL 11107B), 48 h) was 90% and the “Purity of macorolide compound 11107B” value ([2]; β-CD (10 mg/mL solution mixed in equal volume with 0.1 mg/mL 11107B), 120 h) was 74%. For the same compound, the “stability in a solid form in a freeze-dried preparation on addition of cyclodextrin” value [3] was “sufficiently stabilized”, the “Purity of macorolide compound 11107B” value ([3]; HP-β-CD concentration 10 mg/mL, stored one month at 40° C.) was 99.76 ± 0.08% and the “Purity of macorolide compound 11107B” value ([3]; HP-β-CD concentration 10 mg/mL, stored one month at 60° C.) was 98.60 ± 0.06%. The “Purity of macorolide compound 11107B” value ([3]; HP-β-CD concentration 10 mg/mL, stored one month at −20° C.) was 99.73 ± 0.01%, the “Purity of macorolide compound 11107B” value ([3]; HP-β-CD concentration 200 mg/mL, stored one month at 40° C.) was 99.82 ± 0.02% and the “Purity of macorolide compound 11107B” value ([3]; HP-β-CD concentration 200 mg/mL, stored one month at 60° C.) was 98.90 ± 0.05%. The “Purity of macorolide compound 11107B” value ([3]; HP-β-CD concentration 200 mg/mL, stored one month at −20° C.) was 99.70 ± 0.00%, the “Purity of macorolide compound 11107B” value ([3]; HP-β-CD not added, stored one month at 40° C.) was 98.17 ± 0.12% and the “Purity of macorolide compound 11107B” value ([3]; HP-β-CD not added, stored one month at 60° C.) was 94.63 ± 0.11%. For the same compound, the “Purity of macorolide compound 11107B” value ([3]; HP-β-CD not added, stored one month at −20° C.) was 99.56 ± 0.01%, the “stabilization constant Kc” value ([4]; 0.05 mg/mL) was ≥ 1500 and the “k0 (kobs when no β-CD was present)” value ([4]; PBS (-), 40° C., estimated) was 0.152 h⁻¹. For the same compound, the “kc (kobs when a large excess of β-CD was present)” value ([4]; from intercept of 1/(k0-kobs) versus inverse of β-CD concentration, PBS (-), 40° C.) was 0.004 h⁻¹, the “kobs (apparent decomposition rate constant)” value ([4]; β-CD concentration 0 mg/mL, PBS (-), 40° C.) was 0.152 h⁻¹ and the “1/(k0 − kobs)” value [4, 5] was 39.057. For the same compound, the “k0 − kobs” value [4, 5] was 0.026, the “kobs (apparent decomposition rate constant)” value [4, 5] was 0.126 h⁻¹ and the “1/(k0 − kobs)” value [4, 6] was 16.736. For the same compound, the “k0 − kobs” value [4, 6] was 0.060, the “kobs (apparent decomposition rate constant)” value [4, 6] was 0.092 h⁻¹ and the “1/(k0 − kobs)” value [4, 7] was 9.971. For the same compound, the “k0 − kobs” value [4, 7] was 0.100, the “kobs (apparent decomposition rate constant)” value [4, 7] was 0.052 h⁻¹ and the “1/(k0 − kobs)” value [4, 8] was 7.590. For the same compound, the “k0 − kobs” value [4, 8] was 0.132, the “kobs (apparent decomposition rate constant)” value [4, 8] was 0.020 h⁻¹ and the “decomposition rate of included 11107B relative to 11107B that was not included” value ([4]; β-CD inclusion, PBS (-), 40° C.) was 1/30.
